The text below walks through data of patent US8053603B2, “Tetralone-based monoamine reuptake inhibitors” (Sunovion Pharmaceuticals Inc., priority 2006, dated 2011).

Read-outs that look alike come from different tables or passages of the source. Where only a bound is given, the exact number is not on record here.

The conditions of assay [1]: in vivo; cited from earlier work.
For a further assay, the target named is serotonin uptake sites (Homo sapiens, UniProt P31645). The following applies: versus racemic 1-(3,4-dichlorophenyl)-3-azabicyclo[3.1.0]hexane; cited from earlier work.
Chain of serotonin uptake sites (P31645 whole entry): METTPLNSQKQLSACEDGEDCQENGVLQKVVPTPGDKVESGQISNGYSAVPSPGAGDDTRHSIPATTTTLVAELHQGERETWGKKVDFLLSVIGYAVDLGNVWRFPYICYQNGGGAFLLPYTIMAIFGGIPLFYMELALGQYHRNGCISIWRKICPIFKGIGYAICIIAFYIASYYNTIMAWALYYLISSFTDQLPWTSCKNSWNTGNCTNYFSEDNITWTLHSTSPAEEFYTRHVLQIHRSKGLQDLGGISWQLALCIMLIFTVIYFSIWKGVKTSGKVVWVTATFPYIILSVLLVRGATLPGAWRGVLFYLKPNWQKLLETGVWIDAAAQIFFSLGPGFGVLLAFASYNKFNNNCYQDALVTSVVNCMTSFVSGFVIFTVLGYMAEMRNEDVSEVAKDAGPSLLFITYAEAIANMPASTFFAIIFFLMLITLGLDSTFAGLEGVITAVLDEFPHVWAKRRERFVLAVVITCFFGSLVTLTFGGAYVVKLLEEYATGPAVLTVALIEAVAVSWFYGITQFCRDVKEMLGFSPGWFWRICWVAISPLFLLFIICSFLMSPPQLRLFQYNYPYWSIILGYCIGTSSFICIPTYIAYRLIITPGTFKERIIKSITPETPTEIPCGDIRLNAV
Assay [2] concerns the target T1, recombinant human norepinephrine transporter (Homo sapiens, UniProt P23975).
T1 construct: expressed in transfected cells; host or cells: HEK293 or MDCK
In words: Norepinephrine functional uptake assay for human reuptake transporter. The settings on record: [3H]norepinephrine uptake, HEK293 or MDCK cells expressing human norepinephrine transporter. The assay is classed as cell-based.

For assay [3], the target named is T2, recombinant human serotonin transporter (Homo sapiens, UniProt P31645).
T2 construct: expressed in transfected cells; host or cells: HEK-293
T2 sequence (P31645 whole entry): as above
In words: Serotonin functional uptake assay for human reuptake transporter. The assay is classed as cell-based. The following applies: [3H]serotonin uptake, HEK-293 cells expressing human serotonin transporter; read-out: Human IC50 (nM) SERT. As for the experimental part:
Serotonin Functional Uptake Assay for Human Reuptake Transporter
HEK-293 cells expressing human serotonin transporter were plated before the assay. […] Cells with internalized [^3H]serotonin were washed and the amount of tritium taken into cells is counted using a liquid scintillation counter to determine [^3H]serotonin uptake.

The target in assay [4] is T3, recombinant human dopamine transporter (Homo sapiens, UniProt Q01959).
T3 construct: expressed in transfected cells; host or cells: CHO-K1 or HEK293
T3 sequence (Q01959 whole entry): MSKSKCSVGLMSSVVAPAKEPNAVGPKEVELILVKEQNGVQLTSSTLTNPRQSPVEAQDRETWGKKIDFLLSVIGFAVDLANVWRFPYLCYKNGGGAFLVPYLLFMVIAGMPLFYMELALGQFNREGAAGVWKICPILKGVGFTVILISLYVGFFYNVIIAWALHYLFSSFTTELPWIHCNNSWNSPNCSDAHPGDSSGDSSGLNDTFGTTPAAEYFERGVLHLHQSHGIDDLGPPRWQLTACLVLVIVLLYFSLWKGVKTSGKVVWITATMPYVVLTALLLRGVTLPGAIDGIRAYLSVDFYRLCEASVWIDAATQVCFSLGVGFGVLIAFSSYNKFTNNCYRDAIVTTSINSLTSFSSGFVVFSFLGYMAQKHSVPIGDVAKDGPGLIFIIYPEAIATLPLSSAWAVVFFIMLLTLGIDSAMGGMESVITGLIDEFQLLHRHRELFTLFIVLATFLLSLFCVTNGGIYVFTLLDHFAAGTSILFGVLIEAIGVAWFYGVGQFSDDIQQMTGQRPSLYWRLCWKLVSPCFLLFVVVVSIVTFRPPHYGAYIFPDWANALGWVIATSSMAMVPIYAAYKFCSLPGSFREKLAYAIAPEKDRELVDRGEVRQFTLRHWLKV
In words: Dopamine functional uptake assay for human reuptake transporter. The following applies: [3H]dopamine uptake, CHO-K1 or HEK293 cells expressing human dopamine transporter; read-out: Human IC50 (nM) DAT. The assay is classed as cell-based.

T1 sequence (P23975 whole entry): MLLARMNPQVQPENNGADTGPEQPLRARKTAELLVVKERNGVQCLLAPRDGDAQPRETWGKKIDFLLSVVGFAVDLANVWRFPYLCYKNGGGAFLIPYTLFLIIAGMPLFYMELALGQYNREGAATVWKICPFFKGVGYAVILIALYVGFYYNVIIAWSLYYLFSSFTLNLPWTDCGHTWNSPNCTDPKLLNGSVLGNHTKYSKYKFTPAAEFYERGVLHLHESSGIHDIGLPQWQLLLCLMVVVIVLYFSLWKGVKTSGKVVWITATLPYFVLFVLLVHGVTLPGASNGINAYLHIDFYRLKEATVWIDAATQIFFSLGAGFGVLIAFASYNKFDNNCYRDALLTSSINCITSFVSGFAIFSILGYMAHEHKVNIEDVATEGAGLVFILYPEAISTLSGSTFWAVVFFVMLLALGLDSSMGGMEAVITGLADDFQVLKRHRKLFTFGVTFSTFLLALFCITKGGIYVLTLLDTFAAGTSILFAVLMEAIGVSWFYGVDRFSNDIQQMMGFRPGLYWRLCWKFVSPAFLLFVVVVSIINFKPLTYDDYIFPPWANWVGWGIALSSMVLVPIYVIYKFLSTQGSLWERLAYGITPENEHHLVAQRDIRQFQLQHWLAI

For `Clc1ccc([C@@]23CNC[C@@H]2C3)cc1Cl` (single isomer, unassigned) [DOV 21,947, (+)-1-(3,4-dichlorophenyl)-3-azabicyclo[3.1.0]hexane], the “immobility in the tail suspension test” value in assay [1] is recorded as “dose-dependent reduction in immobility”. On serotonin uptake sites, the “affinity for the serotonin uptake sites compared with the racemic compound” value is on record as “significantly greater affinity”.

In the case of `COc1ccc2c(c1)C[C@H](N(C)C)C[C@@H]2c1ccc(Cl)c(Cl)c1` (single isomer, unassigned) [Compound 33c.1, 4-(3,4-dichlorophenyl)-7-methoxy-N,N-dimethyl-1,2,3,4-tetrahydronaphthalen-2-amine], the values for the IC50 in assay [2] (read-out: Human IC50 (nM) NET), in assay [3] and in assay [4] were 943 nM, 24 nM and 194 nM, respectively.

Regarding `CN(C)[C@@H]1c2ccccc2CC[C@@H]1c1ccc(Cl)c(Cl)c1` (single isomer, unassigned) [Compound 41b, cis-2-(3,4-dichlorophenyl)-N,N-dimethyl-1,2,3,4-tetrahydronaphthalen-1-amine], the IC50 (usually the midpoint of a concentration-inhibition curve) in assay [2] (read-out: Human IC50 (nM) NET) was greater than 10000 nM; in assay [3] it was 9740 nM; in assay [4], 1120 nM.

In the case of `CN(C)[C@H]1CCc2ccccc2[C@H]1c1ccc(Cl)c(Cl)c1` (single isomer, unassigned) [Compound 37c, 1-(3,4-dichlorophenyl)-N,N-dimethyl-1,2,3,4-tetrahydronaphthalen-2-amine], the IC50 in assay [2] (read-out: Human IC50 (nM) NET) is 1190 nM; in assay [3], 70 nM; in assay [4], 284 nM.

As for `CNC1c2ccccc2CCC1c1ccc(Cl)c(Cl)c1` (single isomer, unassigned) [Compound 40a, 2-(3,4-dichlorophenyl)-N-methyl-1,2,3,4-tetrahydronaphthalen-l-amine], the figures for the IC50 in assay [2] (read-out: Human IC50 (nM) NET), in assay [3] and in assay [4] were greater than 10000 nM, 2470 nM and 3410 nM, respectively.

In the case of `CN[C@H]1Cc2cc(OC)ccc2[C@@H](c2ccc(Cl)c(Cl)c2)C1` (single isomer, unassigned) [Compound 32c.1, 4-(3,4-dichlorophenyl)-7-methoxy-N-methyl-1,2,3,4-tetrahydronaphthalen-2-amine], the IC50 stood at 571 nM in assay [2] (read-out: Human IC50 (nM) NET), 68 nM in assay [3] and 18 nM in assay [4].

As for `CN(C)C1CC(c2ccc(Cl)c(Cl)c2)c2ccccc2C1O` (single isomer, unassigned) [Compound 23d, 4-(3,4-dichlorophenyl)-2-(dimethylamino)-1,2,3,4-tetrahydronaphthalen-1-ol], the IC50 was determined as 65 nM in assay [2] (Human IC50 (nM) NET), 48 nM in assay [3] and 48 nM in assay [4].

As to `CN[C@H]1Cc2ccc(OC)cc2[C@@H](c2ccc(Cl)c(Cl)c2)C1` (stereo in doubt) [Compound 32a.3, 4-(3,4-dichlorophenyl)-6-methoxy-N-methyl-1,2,3,4-tetrahydronaphthalen-2-amine], the IC50 in assay [2] (read-out: Human IC50 (nM) NET) came to 1050 nM; in assay [3], 4380 nM; in assay [4] it was 1500 nM.

Turning to `CC(N)[C@@H]1Cc2ccccc2[C@H](c2ccc(Cl)c(Cl)c2)C1` (single isomer, unassigned) [Compound 52], the IC50 was found to be 122 nM in assay [2] (Human IC50 (nM) NET), 8 nM in assay [3] and 622 nM in assay [4].

For `COc1ccc2c(c1)C[C@H](N(C)C)C[C@@H]2c1ccc(Cl)c(Cl)c1` (single isomer, unassigned) [Compound 33c.2, 4-(3,4-dichlorophenyl)-7-methoxy-N,N-dimethyl-1,2,3,4-tetrahydronaphthalen-2-amine], the figures for the IC50 in assay [2] (read-out: Human IC50 (nM) NET), in assay [3] and in assay [4] were 684 nM, 8 nM and 67 nM, respectively.

`CC(N)C1=Cc2ccccc2[C@H](c2ccc(Cl)c(Cl)c2)C1` (single isomer, unassigned) [Compound 45]: the IC50 in assay [2] (Human IC50 (nM) NET) was 53 nM; in assay [3] it was 876 nM; in assay [4], 174 nM.

Consider `COc1ccc2c(c1)C[C@H](N(C)C)C[C@@H]2c1ccc(Cl)c(Cl)c1` (single isomer, unassigned) [Compound 33c.4, 4-(3,4-dichlorophenyl)-7-methoxy-N,N-dimethyl-1,2,3,4-tetrahydronaphthalen-2-amine], for which the IC50 in assay [2] (read-out: Human IC50 (nM) NET) amounted to 1900 nM; in assay [3], 92 nM; in assay [4], 224 nM.

For `CC(C1=Cc2ccccc2[C@H](c2ccc(Cl)c(Cl)c2)C1)N(C)C` (stereo partly drawn) [Compound 48, 1-((S)-4-(3,4-dichlorophenyl)-3,4-dihydronaphthalen-2-yl)-N,N-dimethylethanamine], the IC50 is 2720 nM in assay [2] (read-out: Human IC50 (nM) NET), 134 nM in assay [3] and 2440 nM in assay [4].
